{"source": "patent EP4778516A1", "about": "“CALCIFICATION ENHANCER FOR OSTEOBLAST MC3T3-E1 CELL” (Watanabe Oyster Laboratory Co., Ltd., priority 2023, dated 2025)", "key": {"MC3T3-E1 cells [1]": {"system": "MC3T3-E1 cells", "experiment": "Cell proliferation assay (cell counting)", "type": "cell-based, mouse", "details": "Bay 11-7082 1, 10, or 50 nM, 3 days; Fig. 7B", "protocol": "To examine progression of cell proliferation, MC3T3-E1 cells (1×10^5/ml medium per well) were cultured using a 24-well plate in a-MEM supplemented with 10% FBS and 1% P/S at 37°C in a water-saturated atmosphere containing 5% CO2 and 95% air. The cells were cultured for 1, 2, 3, 4, or 5 days in the presence of a vehicle (1% ethanol as final concentration) or DHMBA (10 mM). In another experiment, to evaluate the effects of increased concentrations of DHMBA on MC3T3-E1 cells, the cells (1×10^5/ml per well) were cultured using a 24-well plate in DMEM (containing 10% FBS and 1% P/S). The cells were cultured for 3 days in the presence of either a reagent vehicle (1% ethanol as final concentration) or DHMBA (0.1, 1, 10, 100, or 1000 mM).\nTo evaluate the effects of DHMBA on cell death of osteoblasts MC3T3-E1, the cells (1×10^5/ml medium per well in a 24-well plate) were cultured in a-MEM containing 10% FBS and 1% P/S. After culturing for 3 days until reaching subconfluence, either a reagent vehicle (1% ethanol as final concentration) or DHMBA (0.1, 1, 10, 100, or 1000 mM) was added, and the cells were further cultured for 48 hours. After culture, to count the number of cells attached to each well, a […] containing 0.05% trypsin and EDTA (0.1 ml per well) was added, and then the culture plates were incubated at 37°C for 2 minutes. Subsequently, a-MEM (0.9 ml) containing 10% FBS and 1% P/S was added, and the cells were detached and mixed by pipetting. The cell suspension (0.1 ml) was mixed with 0.1 ml of 0.5% trypan blue staining solution. By this staining, […]. Viable cells were counted under a microscope (Olympus MTV-3) using a hemocytometer (Sigma-Aldrich, St. Louis, MO) and a cell counter (H-102P, Line Seiki Co., Ltd., Tokyo, Japan), and the average of two counts was calculated. Cell numbers were expressed as the number per well."}, "MC3T3-E1 cells [2]": {"system": "MC3T3-E1 cells", "experiment": "Effects of conditioned medium of LPS-stimulated RAW264.7 cells on MC3T3-E1 cells", "type": "cell-based, mouse", "details": "Bay 11-7082 1 or 10 nM, conditioned medium 0.5 ml per well", "protocol": "A conditioned medium was obtained by culturing RAW264.7 cells.\nRAW264.7 cells (1×10^5 cells/ml per well in a 24-well plate) were cultured for 3 days after reaching subconfluence in DMEM containing 10% FBS and 1% P/S in the presence or absence of LPS (concentration in the medium: 100 ng/ml). After the cells were cultured, the medium (conditioned medium) was collected.\nTo evaluate the effects of the conditioned medium on proliferation of MC3T3-E1 cells, MC3T3-E1 cells were cultured for 3 days in a-MEM containing 10% FBS and 1% P/S. The cells were then cultured for 3 days using either the conditioned medium (1 ml, control) cultured without LPS or the conditioned medium (0.25 or 0.50 ml per well, adjusted to 1 ml with normal medium) cultured with LPS in the presence or absence of DHMBA (1 or 10 mM).\nFurther, to examine the effects on cell death of MC3T3-E1 cells, the cells (1×10^5 cells/ml per well) were cultured for 3 days in a-MEM containing 10% FBS and 1% P/S. After reaching subconfluence, the medium was replaced. The cells were then further cultured for 48 hours in either the normal medium, the conditioned medium (1 ml) cultured without LPS, or the conditioned medium (0.25 or 0.50 ml per well, adjusted to 1 ml with normal medium) with either a reagent vehicle (1% ethanol as final concentration) or DHMBA (1 or 10 mM). After culture, the cells were detached from each culture well, and cell numbers were counted in the same manner as described above.\nFurther, the effects of Bay 11-7082, which is an NF-kB signaling inhibitor, on proliferation or cell death of MC3T3-E1 cells were investigated. First, to examine the effects of Bay 11-7082 on proliferation of MC3T3-E1 cells, the cells (1×10^5 cells/1 ml per well in a 24-well plate) were cultured for 3 days until reaching subconfluence in the presence of 10% FBS, 1% P/S, and either a reagent vehicle (1% ethanol as final concentration) or Bay 11-7082 (1, 10, 50, 100, or 1000 nM). Next, MC3T3-E1 cells were cultured for 3 days in the presence of the conditioned medium (0.5 ml per well, adjusted to a total of 1 ml with normal medium) with or without Bay 11-7082 (1 or 10 nM) in the presence or absence of DHMBA (10 mM).\nIn another experiment, to evaluate the effects of Bay 11-7082 on cell death of MC3T3-E1, the cells (1×10^5 cells/1 ml per well in a 24-well plate) were cultured in a-MEM containing 10% FBS and 1% P/S. After culturing for 3 days until reaching subconfluence, the medium was replaced with a-MEM (1 ml) containing either the normal medium or the conditioned medium prepared by adding the normal medium to 0.5 ml per well of the conditioned medium, adjusted to a total volume of 1 ml. The cells were then further cultured for 48 hours in the presence of Bay 11-7082 (1 or 10 nM), or Bay 11-7082 (10 nM) in combination with DHMBA (10 mM). After culture, the cells were detached from each culture well, and cell numbers were counted as described above."}}, "data": [{"compound": "Cc1ccc(S(=O)(=O)/C=C/C#N)cc1", "note": "[Bay 11-7082, reference compound]", "values": [{"measurement": "number of MC3T3-E1 cells", "setting": "MC3T3-E1 cells [1]", "value": "did not cause a significant reduction"}, {"measurement": "effects of the conditioned medium on enhancement of cell death of MC3T3-E1 cells", "setting": "MC3T3-E1 cells [2]; 48 hours, Fig. 7D", "value": "suppressed"}, {"measurement": "effects of the conditioned medium on inhibition of proliferation of MC3T3-E1 cells", "setting": "MC3T3-E1 cells [2]; 3 days, Fig. 7C", "value": "suppressed"}]}]}
